Laboratory results as given in article PMC10547880, “Synthesis and biological evaluation of novel 1,2,3-triazole hybrids of cabotegravir: identification of potent antitumor activity against lung cancer” (Frontiers in Pharmacology, 2023).
“Also recorded” adds a separate entry of the source.

Columns and labels:
Format in all cases: cell-based, Human
[1] = tested on: H460 cells; assay: Plate clone formation assay, H460; details: H460, 2-32 μM, particularly 16 μM and 32 μM
Protocol: Cells with the density of 500 cells per well were seeded in a 6-well plate. Different concentrations (0, 2 μM, 4 μM, 8 μM, 16 μM and 32 μM) of compounds were added to cells and maintained for a 72- hour duration. And cells were cultured until the monoclonal appeared. Afterward, cells were fixed with 4% paraformaldehyde and stained by Giemsa dye. The plate clone numbers were photographed and counted using a microscope. Values were expressed as Mean ± SEM, p < 0.05 was considered statistically significant. Data were performed using Graph Prim 7.0.
(§1) To assess the anti-proliferative effects of compound 5i, live/dead cell staining was performed using Calcein Acetoxymethyl Ester (Calcein-AM) and Propidium Iodide (PI) dyes ([Xie et al., 2023]). Calcein-AM highlights live cells through green fluorescence emission, while PI identifies dead cells with damaged membrane integrity, producing red fluorescence. H460 and H1299 cells were treated with different concentrations (0, 5, 10 and 20 μM) of compound 5i for 24 h. After 24 h treatment, cells were stained with Calcein-AM and PI, diluted in cultured medium, and incubated for an hour in dark. Then the fluorescence was detected and photographed using a fluorescent microscope. […] In addition, we also performed plate clone formation assay ([Xu et al., 2018]) to further investigate the anti-proliferation ability of compound 5i. […]

[2] = tested on: H1299 cells; assay: Western blot of protein expression, H1299; details: H1299, 2, 4, 8 μM, 72 h
Protocol: Western blot was used to analyze protein expressions. Cells were cultured in 12-well plates and treated with different concentrations (0, 2, 4, 8 μM) of compounds for 72 h. Cell proteins were extracted using RIPA buffer with protease/phosphatase inhibitor cocktail (CST). 10%–15% sodium dodecyl sulfate polyacrylamide gel electrophoresis was used to separate proteins and nitrocellulose membranes (Millipore) was used to collected proteins. Antibodies used in western bolt were LC3 (3868s, CST), caspase 3 (9662s, CST), cyclin D (2922s, CST), cyclin E (20808s, CST), β-Catenin (9562s, CST), γH2AX (9718s, CST), PARP (46D11, CST), and β-actin (4967s, CST). Values were expressed as Mean ± SEM, p < 0.05 was considered statistically significant. Data were performed using Graph Prim 7.0.
Western blot analysis was performed to assess the protein expressions involved in cell growth and cell death processes. H460 and H1299 cells were treated with different concentrations of compound 5i, and whole cell proteins were collected for analysis. […] Autophagy has both tumor suppression and growth promotion effects in cancers, depending on the cellular context and cancer stage. On the one hand, autophagy inhibits cancer development via eliminating dysfunctional proteins and damaged mitochondria. On the other hand, autophagy can promote tumor growth by providing recycled metabolites to support cancer cell survival and growth ([Wang et al., 2023]). […] But in H1299 cells, compound 5i exerted its anticancer ability by suppressing cell division and proliferation.

[3] = tested on: H460 cells; assay: Live/dead cell staining (Calcein-AM/PI), H460; details: H460, 5, 10, 20 μM, 24 h
Protocol: as §1, with “Cells with a density of 5 × 10^3 cells per well were seeded in a 96-well plate. After overnight incubation, cells were treated with different concentrations (0, 5 μM, 10 μM, 20 μM) of compounds for 24 h. The LIVE/DEAD Assay Kit was used to dye cells, and cells were observed and photographed under a fluorescent microscope. Live and Dead cell numbers were counted and the ratio of dead to living cells were calculated. Values were expressed as Mean ± SEM, p < 0.05 was considered statistically significant. Data were performed using Graph Prim 7.0. To” for “To”

[4] = tested on: H460 cells; assay: Apoptosis assay, Annexin V-FITC/PI flow cytometry, H460; details: H460, 2, 4 and 8 μM, 72 h
Protocol: Cells with a density of 3 × 10^5 cells per well were seeded in 6-well plates. After overnight adhesion, cells were treated with different concentrations of compounds for 72 h. Cells were harvested and stained with Annexin V-FITC and propidium iodide. Apoptotic ratio was quantified using the flow cytometry (BD Biosciences) and analyzed using the FlowJo software v10. Values were expressed as Mean ± SD, p < 0.05 was considered statistically significant. Data were performed using Graph Prim 7.0.
Apoptosis is a programmed-controlled process of cell self-destruction, and increased cell apoptosis can lead to cell death ([Wang et al., 2023]). To explore the preliminary molecular mechanisms of the synthesized compounds action, the apoptotic activity of compound 5i was evaluated by comparing the percentage of apoptotic cells with untreated cells using flow cytometry after staining with Annexin V-FITC and PI ([Chen et al., 2022a]). This assay facilitates the detection of necrotic cells (Q1, AV-/PI+), late apoptotic cells (Q2, AV+/PI+), early apoptotic cells (Q3, AV+/PI-), and live cells (Q4, AV-/PI-). H460 and H1299 cells were treated with different doses of compound 5i for 72h, and cells were collected, stained, and analyzed. The proportion of early and late apoptotic cells was added and their ratio relative to the total cells was calculated.

Structure (SMILES): COc1c2n(cc(C(=O)Nc3cccc(-c4cn(-c5ccccc5OC(F)(F)F)nn4)c3)c1=O)CC1OCC(C)N1C2=O (stereo not shown) [Compound 5i]
- number of cell clones [1]: decreased
- Cyclin D level [2]: decrease
- Cyclin E level [2]: decrease
- LC3 expression [2]: no significant differences
- PARP expression [2]: remained unaffected
- caspase3 expression [2]: no significant differences
- β-catenin expression [2]: remained unaltered
- γ-H2AX expression [2]: pronounced elevation; also recorded: increased expression
- live and dead cell numbers [3]: significantly decreased the number of live cells and increased the number of dead cells
- apoptotic cells (early + late) [4]: significant increase in apoptotic cells
